BindingDB's records for patent US10053455 (Ab Science, 2018)

Target: Tyrosine-protein kinase SYK (Homo sapiens, UniProt P43405)
Test: In Vitro SYK Inhibition Assay
Settings: pH 7.8; 25 °C
Description: SYK kinase was purified as a full length protein in a baculovirus system near homogeneity. All kinase assays were performed with the Kinase TK (tyrosine kinase) HTRF (Homogeneous Time Resolved Fluorescence) assay developed by Cisbio international. […] Reactions were initiated upon introduction of the enzyme and terminated with the addition of one reaction volume (25 μl) of HTRF detection buffer. Plates were incubated for one hour at room temperature and the time resolved Fluorescence resonance energy transfer signal was measured in a Pherastar FS microplate reader (BMG Labtech). All data were the average of triplicate results with a standard deviation <10%.

O=C1NCCN(c2ncc(-c3cccc(Nc4nccc(-c5cccnc5)n4)c3)o2)C12CC2 [US10053455, 019]
IC50: < 500 nM
